Results from patent US20140342392A1, “OPTIMIZED INSECT-BASED EX VIVO MODEL FOR TESTING BLOOD-BRAIN BARRIER PENETRATION AND METHOD FOR EXPOSING INSECT BRAIN TO CHEMICAL COMPOUNDS” (ENTOMOPHARM ApS, priority 2011, published 2014).

System: locust brain (blood-brain barrier)
Conditions: co-treatment with verapamil, brain removed from the cuticula, also after removal of the neural lamella
Description: 1. […] The insects may be obtained from local suppliers or bred in house. The grasshoppers were reared under crowded conditions at 28° C. and a 12:12 dark:light photocycle and fed fresh grass and bran. Before experiments the grasshoppers were fed ecologically cultivated wheat for two weeks. Animals used are adult males (in some experiments females) between two to four weeks after adult emergence. […] After various times of exposure the preparation is washed in saline and the brain is dissected under microscope with fine forceps. The neural lamella surrounding the brain is removed in saline and the brain is then […] in saline, centrifuged and the supernatant frozen until analyses. Drug concentration is analysed by HPLC, LC/MSMS or other methods.

Q: `C=C[C@H]1C[N@@]2CC[C@H]1C[C@@H]2[C@@H](O)c1ccnc2ccc(OC)cc12` [quinidine] was tested. Which “brain concentration with versus without Pgp inhibitor (FIG. 2)” value did it give?
A: higher after co-treatment with the Pgp inhibitor verapamil
